Source: patent US6872729B2, “Pyrimidinylbenzimidazole and triazinylbenzimidazole derivatives and agricultural/horticultural fungicides” (Kumiai Chemical Industry Co., Ltd., priority 1998, dated 2005)

The molecules below were run on Erysiphe graminis (assay: Test for preventive effect on wheat powdery mildew). Conditions: wheat (Norin-61-go) seedlings, 500 ppm active ingredient, preventive treatment; diseased area of first leaves 10 days after inoculation with Erysiphe graminis.
Format: in vivo
Protocol: Test for Preventive Effect on Wheat Powdery Mildew 9 Wheat seeds (variety: Norin-61-go) were sown in each 9 cm×9 cm polyvinyl chloride pot, grown in a greenhouse for 8 days, then treated with 10 ml per pot of aqueous solutions of wettable powders prepared in accordance with Formulation Example 2, at a concentration of 500 ppm in terms of the active ingredients and dried in the air. Then, the seedlings were inoculated with Erysiphe graminis spores by sprinkle over the plant and placed in a greenhouse of from 20 to 25° C. 10 days after the inoculation, the total diseases area of the first leaves in each pot was observed and evaluated on the basis of the standards shown in Table 67. [table]

Structure (SMILES) | Biological effectiveness
COc1cc(OC)nc(-n2cnc3ccccc32)n1 [Compound I-1] | A (No diseased area)
COc1cc(OC)nc(-n2c(Cl)nc3ccccc32)n1 [Compound I-2] | A (No diseased area)
COc1cc(OC)nc(-n2c(Br)nc3ccccc32)n1 [Compound I-3] | A (No diseased area)
COc1cc(OC)nc(-n2c(C)nc3ccccc32)n1 [Compound I-6] | B (Diseased area of less than 25%)
CCc1nc2ccccc2n1-c1nc(OC)cc(OC)n1 [Compound I-7] | A (No diseased area)
COc1cc(OC)nc(-n2c(C3CC3)nc3ccccc32)n1 [Compound I-10] | B (Diseased area of less than 25%)
CCOCc1nc2ccccc2n1-c1nc(OC)cc(OC)n1 [Compound I-22] | A (No diseased area)
COc1cc(OC)nc(-n2c(CCl)nc3ccccc32)n1 [Compound I-23] | A (No diseased area)
COc1cc(OC)nc(-n2c(C(Cl)(Cl)Cl)nc3ccccc32)n1 [Compound I-25] | A (No diseased area)
COc1cc(OC)nc(-n2c(C(F)(F)F)nc3ccccc32)n1 [Compound I-26] | A (No diseased area)
COc1cc(OC)nc(-n2c(C(F)(F)C(F)(F)F)nc3ccccc32)n1 [Compound I-27] | B (Diseased area of less than 25%)
CNc1nc2ccccc2n1-c1nc(OC)cc(OC)n1 [Compound I-29] | B (Diseased area of less than 25%)
COc1cc(OC)nc(-n2c(N(C)C)nc3ccccc32)n1 [Compound I-30] | B (Diseased area of less than 25%)
COc1cc(OC)nc(-n2c(-c3ccc(Cl)cc3)nc3ccccc32)n1 [Compound I-35] | B (Diseased area of less than 25%)
COc1cc(OC)nc(-n2c(C#N)nc3ccccc32)n1 [Compound I-38] | B (Diseased area of less than 25%)
COc1nc(OC)nc(-n2cnc3ccccc32)n1 [Compound I-40] | B (Diseased area of less than 25%)
COc1nc(OC)nc(-n2c(Cl)nc3ccccc32)n1 [Compound I-41] | A (No diseased area)
COc1nc(OC)nc(-n2c(C)nc3ccccc32)n1 [Compound I-45] | A (No diseased area)
COc1nc(OC)nc(-n2c(C(F)(F)F)nc3ccccc32)n1 [Compound I-66] | A (No diseased area)
COc1cc(OC)nc(-n2cnc3cc(F)ccc32)n1 [Compound I-82] | A (No diseased area)
COc1cc(OC)nc(-n2cnc3cc(Cl)ccc32)n1 [Compound I-83] | B (Diseased area of less than 25%)
COc1cc(OC)nc(-n2cnc3cc(Br)ccc32)n1 [Compound I-84] | A (No diseased area)
COc1cc(OC)nc(-n2cnc3cc(C)ccc32)n1 [Compound I-85] | A (No diseased area)
COc1cc(OC)nc(-n2cnc3cc(C(F)(F)F)ccc32)n1 [Compound I-87] | A (No diseased area)

Structure (SMILES) | Biological effectiveness
COc1ccc2c(c1)ncn2-c1nc(OC)cc(OC)n1 [Compound I-88] | B (Diseased area of less than 25%)
COc1cc(OC)nc(-n2cnc3cc(OC(F)(F)F)ccc32)n1 [Compound I-91] | B (Diseased area of less than 25%)
COc1cc(OC)nc(-n2cnc3cc(C#N)ccc32)n1 [Compound I-111] | B (Diseased area of less than 25%)
COc1cc(OC)nc(-n2cnc3ccc(F)cc32)n1 [Compound I-112] | B (Diseased area of less than 25%)
COc1cc(OC)nc(-n2cnc3ccc(Cl)cc32)n1 [Compound I-113] | B (Diseased area of less than 25%)
COc1cc(OC)nc(-n2cnc3ccc(C)cc32)n1 [Compound I-114] | B (Diseased area of less than 25%)
COc1ccc2ncn(-c3nc(OC)cc(OC)n3)c2c1 [Compound I-116] | B (Diseased area of less than 25%)
COc1cc(OC)nc(-n2cnc3cc(C)c(C)cc32)n1 [Compound I-122] | B (Diseased area of less than 25%)
COc1nc(OC)nc(-n2cnc3cc(Cl)ccc32)n1 [Compound I-130] | A (No diseased area)
COc1nc(OC)nc(-n2cnc3cc(Br)ccc32)n1 [Compound I-131] | A (No diseased area)
COc1nc(OC)nc(-n2cnc3cc(I)ccc32)n1 [Compound I-132] | A (No diseased area)
COc1nc(OC)nc(-n2cnc3cc(C)ccc32)n1 [Compound I-133] | A (No diseased area)
CCc1ccc2c(c1)ncn2-c1nc(OC)nc(OC)n1 [Compound I-134] | A (No diseased area)
CCCc1ccc2c(c1)ncn2-c1nc(OC)nc(OC)n1 [Compound I-135] | A (No diseased area)
COc1nc(OC)nc(-n2cnc3cc(C(C)C)ccc32)n1 [Compound I-136] | B (Diseased area of less than 25%)
COc1ccc2c(c1)ncn2-c1nc(OC)nc(OC)n1 [Compound I-141] | A (No diseased area)
COc1nc(OC)nc(-n2cnc3cc(Cl)c(Cl)cc32)n1 [Compound I-175] | A (No diseased area)
COc1nc(OC)nc(-n2cnc3cc(C)c(C)cc32)n1 [Compound I-176] | A (No diseased area)
COc1cc(OC)nc(-n2c(C)nc3c(C)cccc32)n1 [Compound I-181] | B (Diseased area of less than 25%)
COc1cc(OC)nc(-n2c(C)nc3cc(F)ccc32)n1 [Compound I-183] | B (Diseased area of less than 25%)
COc1cc(OC)nc(-n2c(C)nc3cc(Cl)ccc32)n1 [Compound I-184] | A (No diseased area)
COc1cc(OC)nc(-n2c(C)nc3cc(Br)ccc32)n1 [Compound I-185] | A (No diseased area)
COc1cc(OC)nc(-n2c(C)nc3cc(C(F)(F)F)ccc32)n1 [Compound I-188] | A (No diseased area)
COc1ccc2c(c1)nc(C)n2-c1nc(OC)cc(OC)n1 [Compound I-189] | A (No diseased area)

Structure (SMILES) | Biological effectiveness
COc1cc(OC)nc(-n2c(C)nc3cc(OC(F)(F)F)ccc32)n1 [Compound I-192] | B (Diseased area of less than 25%)
COc1cc(OC)nc(-n2c(C)nc3cc(C(=O)c4ccccc4)ccc32)n1 [Compound I-195] | B (Diseased area of less than 25%)
COc1cc(OC)nc(-n2c(C)nc3cc(C#N)ccc32)n1 [Compound I-199] | B (Diseased area of less than 25%)
COc1cc(OC)nc(-n2c(C)nc3ccc(F)cc32)n1 [Compound I-200] | A (No diseased area)
COc1cc(OC)nc(-n2c(C)nc3ccc(Cl)cc32)n1 [Compound I-201] | A (No diseased area)
COc1cc(OC)nc(-n2c(C)nc3ccc(C)cc32)n1 [Compound I-202] | B (Diseased area of less than 25%)
COc1cc(OC)nc(-n2c(C)nc3ccc(C(F)(F)F)cc32)n1 [Compound I-203] | B (Diseased area of less than 25%)
COc1ccc2nc(C)n(-c3nc(OC)cc(OC)n3)c2c1 [Compound I-204] | A (No diseased area)
COc1cc(OC)nc(-n2c(C)nc3ccc(C(=O)c4ccccc4)cc32)n1 [Compound I-208] | B (Diseased area of less than 25%)
COc1cc(OC)nc(-n2c(C)nc3cc(Cl)c(Cl)cc32)n1 [Compound I-209] | B (Diseased area of less than 25%)
COc1nc(OC)nc(-n2c(C)nc3c(C)cccc32)n1 [Compound I-212] | B (Diseased area of less than 25%)
COc1nc(OC)nc(-n2c(C)nc3cc(F)ccc32)n1 [Compound I-214] | A (No diseased area)
COc1nc(OC)nc(-n2c(C)nc3cc(Br)ccc32)n1 [Compound I-216] | A (No diseased area)
COc1nc(OC)nc(-n2c(C)nc3cc(I)ccc32)n1 [Compound I-217] | A (No diseased area)
COc1nc(OC)nc(-n2c(C)nc3cc(C)ccc32)n1 [Compound I-218] | A (No diseased area)
CCc1ccc2c(c1)nc(C)n2-c1nc(OC)nc(OC)n1 [Compound I-219] | A (No diseased area)
CCCc1ccc2c(c1)nc(C)n2-c1nc(OC)nc(OC)n1 [Compound I-220] | B (Diseased area of less than 25%)
COc1nc(OC)nc(-n2c(C)nc3cc(C(C)C)ccc32)n1 [Compound I-221] | B (Diseased area of less than 25%)
COc1nc(OC)nc(-n2c(C)nc3cc(C(C)(C)C)ccc32)n1 [Compound I-222] | B (Diseased area of less than 25%)
COc1nc(OC)nc(-n2c(C)nc3cc(C(F)(F)F)ccc32)n1 [Compound I-225] | A (No diseased area)
COc1ccc2c(c1)nc(C)n2-c1nc(OC)nc(OC)n1 [Compound I-226] | A (No diseased area)
COc1nc(OC)nc(-n2c(C)nc3cc(OC(F)(F)F)ccc32)n1 [Compound I-229] | A (No diseased area)
COC(=O)c1ccc2c(c1)nc(C)n2-c1nc(OC)nc(OC)n1 [Compound I-232] | B (Diseased area of less than 25%)
COc1nc(OC)nc(-n2c(C)nc3cc(C(C)=O)ccc32)n1 [Compound I-234] | A (No diseased area)
